pEC50, pIC50, pKd: −log10 of the molar value.
Tests used:
[1] = test system: Hepatocyte; assay: Inhibition of PCSK9 mRNA expression in mouse primary hepatocytes at 2.5 uM after 24 hrs relative to control; assay type: functional
[2] = test system: HepG2; assay: Inhibition of PCSK9 mRNA expression in human HepG2 cells after 24 hrs by SYBR Green I dye-based qRT-PCR analysis; assay type: functional, cell-based; details: HepG2, 24 h
[3] = target: 80S Ribosome; assay: Binding affinity to 80S ribosome in human HuH7 cells expressing human C-terminal V5/6-His-tagged PCSK9 assessed as inhibition of PCSK9 secretion after 16 to 24 hrs by AlphaLISA method; assay type: cell-based; details: huh-7
[4] = target: T1, Proprotein convertase subtilisin/kexin type 9 (Homo sapiens, UniProt Q8NBP7); assay: Inhibition of human recombinant full length ProLabel-tagged PCSK9 expressed in CHO-K1 cells incubated overnight and measured after 3 days by chemiluminescence assay; assay type: cell-based
[5] = test system: CHO-K1; assay: Cytotoxicity against CHOK1 cells expressing human recombinant full length ProLabel-tagged PCSK9 after overnight incubation by CellTiter blue assay; assay type: cell-based; details: Cricetulus griseus
[6] = target: T1, Proprotein convertase subtilisin/kexin type 9; assay: Inhibition of human recombinant PCSK9 expressed in CHO-K1 cells assessed as alkaline phosphatase secretion incubated overnight and measured after 3 days by HTS assay; assay type: cell-based
[7] = target: T1, Proprotein convertase subtilisin/kexin type 9; assay: Inhibition of human recombinant full length ProLabel-tagged PCSK9 expressed in CHO-K1 cells incubated overnight and measured after 3 days by HTS assay; assay type: cell-based
[8] = test system: Mus musculus; assay: Decrease in cholesterol level in C57BL/6 mouse fed with high fat diet at 10 mg/kg, po administered daily for 5 days relative to control; assay type: functional; set-up: scale not given: the % may be the effect or the level left
[9] = target: T1, Proprotein convertase subtilisin/kexin type 9; assay: Binding affinity to PCSK9 (unknown origin) by SPR assay
[10] = test system: Hepatocyte; assay: Inhibition of PCSK9 mRNA expression in mouse primary hepatocytes at 2 uM after 24 hrs relative to control; assay type: functional
[11] = test system: HepG2; assay: Inhibition of PCSK9 mRNA expression in human HepG2 cells at 20 uM after 24 hrs by qRT-PCR analysis relative to control; assay type: functional; details: HepG2, 24 h
[12] = test system: HepG2; assay: Inhibition of PCSK9 mRNA expression in human HepG2 cells after 24 hrs by qRT-PCR analysis; assay type: functional, cell-based; details: HepG2, 24 h
[13] = test system: HepG2; assay: Inhibition of PCSK9 mRNA expression in human HepG2 cells by SYBR Green I dye-based qRT-PCR analysis; assay type: functional, cell-based
[14] = target: T1, Proprotein convertase subtilisin/kexin type 9; assay: Inhibition of PCSK9 in human HepG2 cells assessed as increase in LDL uptake after 24 hrs by fluorescence assay; assay type: cell-based
[15] = target: T1, Proprotein convertase subtilisin/kexin type 9; assay: Inhibition of wild type His-tagged PCSK9 (unknown origin) binding to recombinant LDLR-AB domain (unknown origin) after 2 hrs by fluorescence assay
[16] = test system: Huh-7; assay: Inhibition of PCSK9 mRNA expression in human HuH7 cells at 2 uM after 24 hrs by qRT-PCR assay relative to control; assay type: functional; details: Huh-7, 24 h
[17] = test system: Huh-7; assay: Increase in LDLR protein expression in human HuH7 cells at 2 uM after 24 hrs by immunoblotting assay relative to control; assay type: functional
[18] = test system: Huh-7; assay: Increase in LDLR mRNA expression in human HuH7 cells at 2 uM after 24 hrs by qRT-PCR assay relative to control; assay type: functional

T1 sequence (Q8NBP7 31-152 limits assumed): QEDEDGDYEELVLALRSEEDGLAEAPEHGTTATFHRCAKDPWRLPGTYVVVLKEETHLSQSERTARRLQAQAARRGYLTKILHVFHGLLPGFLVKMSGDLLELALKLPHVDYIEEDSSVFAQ
T1 sequence (Q8NBP7 153-692 limits assumed): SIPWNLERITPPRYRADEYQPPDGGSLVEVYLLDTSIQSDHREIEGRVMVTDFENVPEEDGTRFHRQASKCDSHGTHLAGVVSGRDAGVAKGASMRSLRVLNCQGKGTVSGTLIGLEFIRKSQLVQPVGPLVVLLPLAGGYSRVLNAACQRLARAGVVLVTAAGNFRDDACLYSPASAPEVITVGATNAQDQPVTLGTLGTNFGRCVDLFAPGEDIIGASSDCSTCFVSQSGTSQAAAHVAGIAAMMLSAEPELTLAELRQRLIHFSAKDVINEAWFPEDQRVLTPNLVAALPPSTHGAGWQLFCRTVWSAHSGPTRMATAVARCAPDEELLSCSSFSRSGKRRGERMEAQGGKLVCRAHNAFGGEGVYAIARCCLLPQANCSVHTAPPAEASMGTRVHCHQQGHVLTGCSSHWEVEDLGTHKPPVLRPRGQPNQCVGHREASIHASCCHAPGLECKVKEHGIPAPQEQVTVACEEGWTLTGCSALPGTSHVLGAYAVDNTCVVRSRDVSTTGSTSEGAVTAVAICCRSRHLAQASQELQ

**Q.** Which inhibition at 2.5 µM [1] does the source give for `COc1cc2c(cc1-c1c(C)noc1C)ncc1[nH]c(=O)n([C@H](C)c3ccccn3)c12` here?
**A.** > 90%

**Q.** `COc1cc([C@@H]2O[C@H](c3cc(O)c(OC)c(OC)c3)[C@@H](C)[C@@H]2C)ccc1O` was tested. Which pIC50 [2] did it give?
**A.** 5.50

**Q.** With `O=C(c1ccc(-n2nnc3cccnc32)cc1)N(c1ncccc1Cl)[C@@H]1CCCNC1` as the compound, how does the pIC50 [3] read?
**A.** 6.52

**Q.** `COc1ccc(CCC(=O)N(c2nccc3ccccc23)[C@@H]2CCCNC2)cc1` was tested. Which pIC50 [4] did it give?
**A.** > 5.00

**Q.** And the pIC50 [5]?
**A.** < 5.00

**Q.** And the pIC50 [6]?
**A.** < 5.00

**Q.** And the pIC50 [7]?
**A.** 5.32

**Q.** `Cc1cc(C(=O)C2=C(O)C(=O)N(CCCN3CCOCC3)C2c2ccncc2)ccc1OCc1ccccc1` (configuration not stated) was tested. Which Activity [8] did it give?
**A.** 20 - 38%

**Q.** `CCN(CC)C(=O)c1ccc(NC(=O)CSc2nnc(-c3cccs3)n2C2CC2)cc1` was tested. Which Activity [8] did it give?
**A.** 20 - 38%

**Q.** With `CC(C)C[C@H](C(=O)N1CCN([C@@H](CC(N)=O)C(=O)N[C@@H](CCCNC(=N)N)C(=O)N[C@H]2CCOC2=O)CC1)N1C(=O)N[C@@H](CC(=O)O)C1=O` as the compound, how does the pKd [9] read?
**A.** 4.61

**Q.** `Cc1sc2c(c1C)C(c1ccccc1)=N[C@@H](CC(=O)OC(C)(C)C)c1nnc(C)n1-2` was tested. Which inhibition at 2 µM [10] did it give?
**A.** > 90%

**Q.** How did the inhibition at 20 µM [11] turn out when `COc1cc(O)cc2c1C(=O)[C@H](O)[C@@H](c1ccccc1O)O2` was run?
**A.** 84.4%

**Q.** With `CC(C)C[C@@H](C(=O)N[C@H](CCCCN)C(=O)N[C@H]1CCOC1=O)N1CCN(C(=O)[C@H](CS)N2C(=O)N[C@H](CC(N)=O)C2=O)CC1` as the compound, how does the pKd [9] read?
**A.** 4.39

**Q.** Which Activity [8] does the source give for `O=C(Nc1ccc(-c2nc3ccccc3o2)cc1)c1ccc(NC(=O)c2cc3ccccc3o2)cc1` here?
**A.** 20 - 38%

**Q.** `CN1C(=O)c2cc(NC(=O)c3ccc(C(F)(F)F)cc3)ccc2OC[C@@H]2O[C@H](CC(=O)NC3Cc4ccccc4C3)CC[C@@H]21` was tested. Which pEC50 [12] did it give?
**A.** 6.44

**Q.** How did the pKd [9] turn out when `CC(C)C[C@H](C(=O)N1CCN([C@@H](CC#N)C(=O)N[C@@H](CCCNC(=N)N)C(=O)N[C@H]2CCOC2=O)CC1)N1C(=O)N[C@@H](CC(=O)O)C1=O` was run?
**A.** 4.45

**Q.** With `COC(=O)c1c(C)cc(O[C@@H]2O[C@H](CO)[C@@H](O)[C@H]2O)c(OC)c1O` as the compound, how does the pIC50 [13] read?
**A.** 4.70

**Q.** How did the pIC50 [13] turn out when `CC(C)[C@@H](C)/C=C/[C@@H](C)[C@H]1CCC2=C3[C@@H](O)[C@@H]4O[C@@]45C[C@@H](O)CC[C@]5(C)[C@H]3CC[C@@]21C` was run?
**A.** 5.08

**Q.** With `COc1cc2c(c(OC)c1OC)-c1c(cc3c(c1OC)OCO3)C[C@@H](C)[C@@](C)(O)C2` as the compound, how does the pIC50 [2] read?
**A.** 5.96

**Q.** Which Activity [8] does the source give for `Cc1ccc(N2CCN(C(=O)c3ccc(NC(N)=O)cc3)C(c3ccccc3)C2)cc1Cl` (configuration not stated) here?
**A.** 20 - 38%

**Q.** How did the pEC50 [14] turn out when `Cn1cccc1-c1ccc(-c2ccc(-c3ccc(-c4ccccc4)n3C)n2C)n1C` was run?
**A.** 5.22

**Q.** And the pIC50 [15]?
**A.** 4.95

**Q.** `CC(=O)Nc1ccc(C(=O)N2CCN(c3ccc(C)c(Cl)c3)CC2c2ccccc2)cc1` (configuration not stated) was tested. Which Activity [8] did it give?
**A.** 20 - 38%

**Q.** With `COc1cc2c(c(O)c1O)COC2=O` as the compound, how does the pIC50 [13] read?
**A.** 5.14

**Q.** `C/C=C(/C)C(=O)Oc1c2c(cc3c1-c1c(cc(OC)c(OC)c1OC)C[C@](C)(O)[C@@H](C)C3)OCO2` was tested. Which pIC50 [2] did it give?
**A.** 6.44

**Q.** `Nc1ncnc2c1ncn2[C@@H]1O[C@H](CO)[C@@H](O)[C@H]1O` [ADENOSINE] was tested. Which pIC50 [13] did it give?
**A.** 4.73

**Q.** What does the source list for `O=c1c(O[C@@H]2O[C@H](CO)[C@@H](O)[C@H](O)[C@H]2O)c(-c2ccc(O)c(O)c2)oc2cc(O)cc(O)c12` [ISOQUERCETIN]?
**A.** inhibition at 2 µM [16]: 20 to 30%; Activity [17]: 300 - 400%; Activity [18]: 60%

**Q.** `CC(C)=CCc1c(O)cc(-c2cc3ccc(O)cc3o2)cc1O` [MORACIN C] was tested. Which pIC50 [2] did it give?
**A.** 4.77

**Q.** How did the pIC50 [2] turn out when `COc1c2c(cc3c1-c1c(cc4c(c1OC)OCO4)C[C@H](C)[C@H](C)C3)OCO2` [SCHISANDRIN C] was run?
**A.** 5.41

**Q.** For `COc1cccc(O)c1-c1cc(=O)c2c(O)c(OC)c(OC)c(OC)c2o1` [SKULLCAPFLAVONE II], which inhibition at 20 µM [11] is on record?
**A.** 42.4%

— ChEMBL document CHEMBL4382228, “Small molecules as inhibitors of PCSK9: Current status and future challenges” (Eur J Med Chem, 2019)
